Assay results reported in paper PMC6711404 (Science signaling, 2017).
Values joined by “and” are separate entries in the source; they are usually repeats but may differ in a detail not shown here. Identical values can stand only once.

What was measured:
[1] = test system: pRII (PKA-II signaling activity) in mouse sensory neurons; assay type: cell-based
[2] = test system: pRII (PKA-II signaling activity) in rat sensory neurons; assay type: cell-based; settings: for IC50: read-out: IC50 on pRII signals induced by 5-HT

8-bromoadenosine-3′,5′-cyclic monophosphorothioate, Sp-isomer, and acetoxymethyl ester [Sp-8-Br-cAMPS-AM]
pRII response in Nav1.7-/- versus Nav1.7+/+ cultures [1]: the same

NCCc1c[nH]c2ccc(O)cc12 [5-HT]
Neuron subgroups in which pRII intensity is increased [2]: predominately activated RIIβ(+) neurons | Numbers of RIIβ(+) neurons responsive to 5-HT [1]: 27.8 ± 1.3% and 19.1 ± 1.2% | Smaller sized sensory neurons with increased pRII signals [1]: 17% and 21% | pRII response in Nav1.7-/- versus Nav1.7+/+ cultures [1]: the maximum amplitude but not the EC50 of the pRII response to 5-HT was reduced

C=C[C@@]1(C)CC(=O)[C@]2(O)[C@@]3(C)[C@@H](O)CCC(C)(C)[C@@H]3[C@H](O)[C@H](OC(C)=O)[C@@]2(C)O1 [Fsk, forskolin]
Neuron subgroups in which pRII intensity is increased [2]: all rat sensory neurons, both RIIβ(-) and RIIβ(+) neurons | Population of Fsk-responding cells [1]: 28% and 23% | pRII response in Nav1.7-/- versus Nav1.7+/+ cultures [1]: the same

Cn1cc(C(=O)OCC2CCN(CCNS(C)(=O)=O)CC2)c2ccccc21 [GR113808]
Effect on 5-HT-induced pRII intensity [2]: blocked | IC50 [2]: 0.0086 µM

CCCCC[C@H](O)/C=C/[C@@H]1[C@H]2C/C(=C/CCCC(=O)O)O[C@H]2C[C@H]1O [PGI2, prostacyclin]
Neuron subgroups in which pRII intensity is increased [2]: predominately activated RIIβ(+) neurons | pRII response in Nav1.7-/- versus Nav1.7+/+ cultures [1]: the same

O=C1CC[C@@]2(O)[C@H]3Cc4ccc(O)c5c4[C@@]2(CCN3CC2CC2)[C@H]1O5 [naltrexone]
Effect on 5-HT-induced pRII intensity [2]: no effect | Effect on basal pRII intensity [2]: no effect | Effect on baseline amount of pRII [1]: Neither fentanyl nor naltrexone altered

CTOP
Effect on 5-HT-induced pRII intensity [2]: did not affect | Effect on DAMGO inhibition of the 5-HT-induced increase in pRII [2]: partially | Effect on basal pRII intensity [2]: did not affect

DAMGO
IC50 [2]: 0.321 µM | Inhibition of 5-HT-induced pRII: Nav1.7-/- versus wild-type neurons [1]: The IC50 to inhibit 5-HT-induced pRII was similar, but the maximum response was greater
